Measured values: EP4397674A1, “CASPASE-2 INHIBITOR COMPOUNDS” (Kintsugi Therapeutics S.L., priority 2023, dated 2024)
Where “and” joins values, the source holds several entries; their conditions need not be identical. Equal entries are not always repeated.

Experiments:
Type in all cases: biochemical
[1] = target: T1, caspase-2 (Homo sapiens, UniProt P42575); assay: Kinetic assay of individual fluorogenic substrates NH-Idc-P4-P3-Dab-Asp-ACC (Example 4); conditions: substrate 10µM, caspase-2 10nM, 37°C; relative to NH-Idc-hGlu-Glu(Chx)-Dab-Asp-ACC
T1 sequence (P42575 170-333 limits assumed): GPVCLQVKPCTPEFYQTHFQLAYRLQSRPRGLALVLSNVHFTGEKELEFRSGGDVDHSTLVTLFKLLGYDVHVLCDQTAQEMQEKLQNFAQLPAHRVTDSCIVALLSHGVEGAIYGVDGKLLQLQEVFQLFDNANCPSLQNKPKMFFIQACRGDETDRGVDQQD
T1 sequence (P42575 348-452 limits assumed): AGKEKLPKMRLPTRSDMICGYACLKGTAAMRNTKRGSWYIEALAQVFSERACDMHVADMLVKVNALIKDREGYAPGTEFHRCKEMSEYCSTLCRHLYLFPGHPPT
Experimental: Caspase-2 substrates were synthesized according to standard SPPS procedure, purified on HPLC, lyophilized and dissolved in DMSO to the final concentration of 20mM (Poreba et al. 2014, CDD). In particular, the following caspase-2 substrates were synthesized to carry out the present example: [drawing 66] [drawing 67] [drawing 68] [drawing 69] [drawing 70] [drawing 71]
Prior to kinetic assay, substrates (several µL) were diluted in DMSO to the […] (working concentration). Next, 1µL of such substrate was spot into the well of 96-well plate following by the addition of […] of caspase-2 in buffer. Immediately after the enzyme was added, the plate was placed in fluorescence plate reader and the fluorescence was measured over the time in a kinetic mode (excitation 355nm, emission 460nm). The liberation of fluorescence was carried out for 30 minutes, and only linear portion of the plot was taken for analysis to calculate the rate of the reaction. The rate of best cleaved substrate was set to 100% and all other substrates were adjusted accordingly (cleavage rate, %). The final concentration of substrate was 10µM, and the final concentration of caspase-2 was 10nM. The caspase-2 assay buffer was 20mM Pipes, 100mM NaCl, sucrose 10% (w/v), 10mM DTT, pH 7.2-7.4. The caspase-2 was preincubated in buffer at 37°C for 15 min before added to the substrate.

[2] = target: T1, caspase-2; assay: Enzymatic kinetic studies, determination of kobs/I inhibition parameter; design: made in house; conditions: for kobs/I: Caspase-2, pseudo-first-order conditions, substrate NH-ldc-hGlu-Thr(Bzl)-Ser-Asp-ACC (50uM), 37°C, dot = thousands separator
Experimental: (§1) The measurement of kobs/l inhibition parameter (second order rate of enzyme inhibition) of synthesized inhibitors towards caspases-2, -3, and -8 was performed using a fMax spectrofluorimeter (Molecular Devices, Sunnyvale, CA, USA) operating in fluorescence kinetic mode in 96-well Corning (Corning, NY, USA) plates. Before kinetic analysis, all caspases were active site-titrated using the zVAD-fmk inhibitor (Cayman Chemical Company, Cat No. 14467). The caspases assay buffer was 10% w/v sucrose, 1M sodium citrate, 20 mM Pipes, 10 mM NaCl, 1 mM EDTA, and 10 mM DTT (pH = 7.3). Buffers were prepared at room temperature, and all kinetic assays were performed at 37°C. The kobs/l parameter was measured under pseudo-first-order kinetic conditions ([I] » [E]). Inhibitor (20uL) was diluted in a 96-well plate and mixed with the appropriate substrate (20uL); NH-ldc-hGlu-Thr(Bzl)-Ser-Asp-ACC (50uM) for caspase-2, Ac-DEVD-ACC (100uM) for caspase-3 and Ac-LEHD-ACC (100uM) for caspase-8. The ACC fluorescence was monitored using 355 nm (excitation) and 460 nm (emission) wavelengths. The substrate-inhibitor mixture (40uL in total) were pre-incubated at 37C for 15 min. At the same time in a separate tube, the caspase was preincubated in assay buffer at 37C, and after 15 min, the enzyme was added to wells (60uL per well, total reaction volume 100uL) and the fluorescence was monitored for 30min, starting immediately. Second-order rate of inhibition (kobs/l) was determined in at least three independent experiments and presented as an average value. GraphPad Prism 7 software was used for calculations (see figure 2).
(§2) The detailed protocol for the expression and purification of human apoptotic caspases can be found elsewhere (Stennicke, 1999).

[3] = target: T2, caspase-8 (Homo sapiens, UniProt Q14790); assay: as above; conditions: substrate Ac-LEHD-ACC (100uM), 37°C, dot = thousands separator; for kobs/I: pseudo-first-order conditions
T2 construct: made in house
Experimental: as §1, §2

[4] = target: T3, caspase-3 (Homo sapiens, UniProt P42574); assay: as above; conditions: substrate Ac-DEVD-ACC (100uM), 37°C, dot = thousands separator; for kobs/I: pseudo-first-order conditions; for kinact/KI: 0.5 h, pH 7.3, pseudo-first-order conditions
T3 construct: made in house
T3 sequence (P42574 29-175 limits assumed): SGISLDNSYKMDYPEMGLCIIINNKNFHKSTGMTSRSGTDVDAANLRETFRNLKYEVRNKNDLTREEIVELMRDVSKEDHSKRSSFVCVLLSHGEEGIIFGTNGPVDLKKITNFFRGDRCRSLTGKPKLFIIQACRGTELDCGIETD
T3 sequence (P42574 176-277 limits assumed): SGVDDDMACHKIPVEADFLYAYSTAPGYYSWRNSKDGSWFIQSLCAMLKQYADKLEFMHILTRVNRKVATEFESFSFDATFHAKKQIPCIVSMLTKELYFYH
Experimental: as §1, §2

[5] = target: T1, caspase-2; assay: P2 substrates screening, rate of substrate hydrolysis (ACC fluorescence); design: made in house
Experimental: (§3) The detailed protocol for the expression and purification of human apoptotic caspases can be found elsewhere (Stennicke, 1999). […] The ACC fluorescence was monitored using 355 nm (excitation) and 460 nm (emission) wavelengths. Before kinetic analysis, all caspases were active site-titrated using the zVAD-fmk inhibitor (Cayman Chemical Company, Cat No. 14467). […] Buffers were prepared at room temperature, and all kinetic assays were performed at 37°C. […] The total volume in a single well was […]. The total assay time was 30 min, but only the linear portion of the fluorescence progress curve was taken for the analysis. The kinetic data were analyzed using Graph Pad Prism software. […]

[6] = target: T2, caspase-8; assay: as above; conditions: substrate 10mM (so in the source), caspase-8 40nM, 37°C, rate per 10nM of caspase
Experimental: as §3

[7] = target: T3, caspase-3; assay: as above; conditions: substrate 10mM (so in the source), caspase-3 15nM, 37°C, rate per 10nM of caspase
Experimental: as §3

T2 sequence (Q14790 217-374 limits assumed): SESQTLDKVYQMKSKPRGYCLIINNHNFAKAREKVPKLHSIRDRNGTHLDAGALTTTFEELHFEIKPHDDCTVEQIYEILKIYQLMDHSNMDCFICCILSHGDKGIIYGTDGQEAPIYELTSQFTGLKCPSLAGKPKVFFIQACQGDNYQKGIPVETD
T2 sequence (Q14790 385-479 limits assumed): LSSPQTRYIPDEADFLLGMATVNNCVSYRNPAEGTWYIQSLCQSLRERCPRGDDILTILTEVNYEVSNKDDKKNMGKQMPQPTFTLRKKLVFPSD

| Compound | RFU/s, %, average (cleavage rate, best substrate set to 100%) [1] | other results |
| --- | --- | --- |
| NH-Idc-Asp-Glu(Chx)-Dab-Asp-ACC | 0,2% | – |
| NH-Idc-hGlu-Thr(Bzl)-Dab-Asp-ACC | 5,9% and 4,6% | – |
| NH-Idc-hGlu-Thr(Bzl)-Dap-Asp-AOMK | – | kobs/I [2]: 372.000 M⁻¹ s⁻¹; SELECTIVITY Caspase2 vs.Caspase3, C2/C3 kobs/I ([2]; division of kobs/I values, caspase-2/caspase-3): 44.8; SELECTIVITY Caspase2 vs.Caspase8, C2/C8 kobs/I ([2]; division of kobs/I values, caspase-2/caspase-8): 70.2; kobs/I [3]: 5.300 M⁻¹ s⁻¹; kobs/I [4]: 8.300 M⁻¹ s⁻¹ |
| Cc1cccc(C)c1C(=O)OCC(=O)[C@H](CC(=O)O)NC(=O)[C@H](CCCCN)NC(=O)[C@@H](NC(=O)[C@H](CCCC(=O)O)NC(=O)[C@@H]1Cc2ccccc2N1)[C@@H](C)OCc1ccccc1 [NH-Idc-hGlu-Thr(Bzl)-Lys-Asp-AOMK] | – | kobs/I [2]: 400.000 M⁻¹ s⁻¹; kobs/I [3]: 9.900 M⁻¹ s⁻¹; kobs/I [4]: 2.570 M⁻¹ s⁻¹ |
| NH-Idc-Asp-Glu-Dab-Asp-ACC | 0,2% | – |
| NH-Idc-hLeu-Glu-Dab-Asp-ACC | 0,0% | – |
| NH-Idc-Leu-Val-Dab-Asp-ACC | 0,0% | – |
| NH-Idc-Leu-Abu-Dab-Asp-ACC | 0,0% | – |
| NH-Idc-hGlu-Val-Dab-Asp-ACC | 5,6% and 6,5% | – |
| Cc1cccc(C)c1C(=O)OCC(=O)[C@H](CC(=O)O)NC(=O)[C@H](CCCN)NC(=O)[C@@H](NC(=O)[C@H](CCCC(=O)O)NC(=O)[C@@H]1Cc2ccccc2N1)[C@@H](C)OCc1ccccc1 [NH-Idc-hGlu-Thr(Bzl)-Orn-Asp-AOMK] | – | kobs/I [2]: 390.000 M⁻¹ s⁻¹; kobs/I [3]: 2.300 M⁻¹ s⁻¹; kinact/KI [4]: 636 M⁻¹ s⁻¹ |
| Cc1cccc(C)c1C(=O)OCC(=O)[C@H](CC(=O)O)NC(=O)[C@H](CO)NC(=O)[C@@H](NC(=O)[C@H](CCCC(=O)O)NC(=O)[C@@H]1Cc2ccccc2N1)[C@@H](C)OCc1ccccc1 [NH-Idc-hGlu-Thr(Bzl)-Ser-Asp-AOMK, reference compound] | – | kobs/I [2]: 665.000 M⁻¹ s⁻¹; kobs/I [3]: 11.600 M⁻¹ s⁻¹; kobs/I [4]: 21.000 M⁻¹ s⁻¹ |
| NH-Idc-Ile-Glu-Dab-Asp-ACC | 0,8% | – |
| NH-Idc-Leu-Glu-Dab-Asp-ACC | 0,7% | – |
| NH-ldc-hGlu-Thr(Bzl)-Ser-Asp-ACC | – | Casp-2 vs Casp-3 ([5]; ratio of hydrolysis rates caspase-2/caspase-3): 38,49; Casp-2 vs Casp-8 ([5]; ratio of hydrolysis rates caspase-2/caspase-8): 27,82; rate of substrate hydrolysis, Caspase-2 ([5]; substrate 10mM (so in the source), caspase-2 5nM, 37°C, rate per 10nM of caspase): 182,81 RFU/s/10nM; rate of substrate hydrolysis, Caspase-8 [6]: 6,57 RFU/s/10nM; rate of substrate hydrolysis, Caspase-3 [7]: 4,75 RFU/s/10nM |
| NH-Idc-Asp-Abu-Dab-Asp-ACC | 0,0% | – |
| NH-Idc-hLeu-Abu-Dab-Asp-ACC | 0,0% | – |
| Cc1cccc(C)c1C(=O)OCC(=O)[C@H](CC(=O)O)NC(=O)[C@H](CCN)NC(=O)[C@@H](NC(=O)[C@H](CCCC(=O)O)NC(=O)[C@@H]1Cc2ccccc2N1)[C@@H](C)OCc1ccccc1 [NH-Idc-hGlu-Thr(Bzl)-Dab-Asp-AOMK] | – | kobs/I [2]: 342.000 M⁻¹ s⁻¹; kinact/KI ([3]; 0.5 h, pH 7.3, pseudo-first-order conditions): 415 M⁻¹ s⁻¹; kinact/KI [4]: 443 M⁻¹ s⁻¹ |
| NH-Idc-Leu-Glu(Chx)-Dab-Asp-ACC | 6,9% | – |
| NH-Idc-hGlu-Abu-Dab-Asp-ACC | 26,2% | – |
| NH-Idc-Ile-Thr(Bzl)-Dab-Asp-ACC | 0,0% | – |
| NH-Idc-hLeu-Thr(Bzl)-Dab-Asp-ACC | 0,0% | – |
| NH-Idc-hGlu-Glu(Me)-Dab-Asp-ACC | 76,1% | – |

Further lines, with some results ahead:

| RFU/s, %, average (cleavage rate, best substrate set to 100%) [1] | Compound | other results |
| --- | --- | --- |
| 0,7% | NH-Idc-hLeu-Glu(Chx)-Dab-Asp-ACC | – |
| 0,3% | NH-Idc-Asp-Val-Dab-Asp-ACC | – |
| 0,0% | NH-Idc-Asp-Thr(Bzl)-Dab-Asp-ACC | – |
| 0,0% | NH-Idc-Ile-Val-Dab-Asp-ACC | – |
| 0,0% | NH-Idc-Ile-Abu-Dab-Asp-ACC | – |
| 100,0% and 91,7% | NH-Idc-hGlu-Glu(Chx)-Dab-Asp-ACC | – |
| 0,0% | NH-Idc-hLeu-Val-Dab-Asp-ACC | – |
| 0,0% | NH-Idc-Leu-Thr(Bzl)-Dab-Asp-ACC | – |
| 75,2% and 72,5% | NH-Idc-hGlu-Glu-Dab-Asp-ACC | – |
| 6,3% | NH-Idc-Ile-Glu(Chx)-Dab-Asp-ACC | – |
